One test deals with Foxa-2 expression. Put plainly: Foxa-2 expression in primary adipocytes from ob/ob mice, semiquantitative RT-PCR. Conditions: insulin 100 μM as printed, prolonged culturing (24 and 60 hours). Type of test: cell-based. As for the experimental part: Total RNA was extracted from cells and EBs using Trizol following manufacturer's instructions (Life Technologies, Inc.). […] The cDNAs provided templates for polymerase chain reactions (PCRs) using specific primers at annealing temperatures ranging between 60 and 65° C. in the presence of dNTPs, [α^-32P]dCTP, and Taq DNA polymerase. […] Primary adipocytes were isolated as described by Rodbell (1964) J. Biol. Chem. 239:375-380. […] (1995) J. Cell. Biochem. 58:435-463. The reaction was stopped by spinning through dinonyl […] oil and the radioactivity quantified by scintillation counting. […] (1995) Am. J. Physiol. 268:[…]-[…]. Fatty acid de novo synthesis was analyzed by saponification of total lipids as described by […] et al. (1978) J. […] Incorporation into lipid glycerol was calculated by subtracting fatty acid radioactive label from total lipid radioactive label. Primary adipocytes were isolated from ob/ob mice and cultured in MEM medium (control) or in the presence of insulin (100 μM; 24 hours and 60 hours, respectively) or rosiglitazone (50 μM), WY14,643 (100 μM), dexamethason (1 μM), leptin (100 ng/ml), TNF-α, (5 ng/ml), adiponectin (500 ng/ml) and glucagons (100 nM) for 60 hours. Gene expression was measured by semiquantitative RT-PCR. Steady state mRNA levels of Hprt were used as a control and indicate that each lane contains similar amounts of rnRNA. Reactions were also assayed in the absence of reverse transcriptase, showing that mRNA was not contaminated with genomic DNA.

In test [1] the test system is Pref-1, Hk-2, m2Pk, Glut-4 and Ucp-2/3. Briefly: Expression of putative Foxa-2 target genes in primary adipocytes cultured with insulin. In kind it is cell-based, mice. As to conditions: 100 nM insulin for 60 hours vs untreated adipocytes.
Another test has as its system Fxr. Put plainly: Fxr expression in primary adipocytes of lean mice cultured with insulin. Type of test: cell-based. As to conditions: insulin 50 nM, 60 hours.
For a further test, the system named is Shp. Put plainly: Shp expression in primary adipocytes of lean mice cultured with insulin. In kind it is cell-based. Conditions: insulin 50 nM, 60 hours.
The next test has as its system Foxa-2 activity. Put plainly: Transactivation assay, HepG2 cells transfected with Foxa-2 and pPepck-Luc or p6xCdx-TkLuc. In kind it is cell-based, rat. As to conditions: insulin 100 nM for the duration of transfection.
For the next test, the system named is Pepck, G6pc and Igfbp-1. Briefly: mRNA levels of Foxa-2 target genes in primary hepatocytes (RT-PCR). In kind it is cell-based. As to conditions: insulin alone (50 nM, 6 hours). Here is the method:
FIGS. 10a-d depict the effect of insulin on Foxa-2 activity. FIG. 10a is a bar graph depicting relative Foxa-2 activity in HepG2 cells transfected with an expression vector for Foxa-2 and […]-Luc (gray bars) or p6xCdx-TkLuc (black bars). Cells were treated with insulin alone or in the presence of Ly294002 or PD98059. FIG. 10b is a bar graph depicting relative Foxa-2 activity in HepG2 cells transfected with p6xCdx-TkLuc and treated with insulin alone or in the presence of Ly294002 or PD98059. […] FIG. 10d is a bar graph depicting relative Foxa-2 activity in HepG2 cells transfected with an expression vector for Foxa-1, Foxa-2, Akt or Akt[…] alone or in combination, using p6xCdx-TkLuc as reporter gene. In all experiments luciferase activity was normalized to β-Gal activity. […] Levels of mRNA were analyzed to determine whether inhibition of Foxa-2 target gene expression by insulin is controlled at a transcriptional or posttranscriptional level. The mRNA levels of Pepck, G6pc and Igfbp-1 in primary hepatocytes that were cultured either in the presence or absence of insulin, PI3-kinase or MAPKK1 inhibitors were measured.

For the next test, the system named is Foxa-1, 2 and 3. Put plainly: Expression levels of Foxa-1, 2 and 3 in primary hepatocytes (RT-PCR). Type of test: cell-based. Conditions: insulin-treated cells.
The test system of the next test is Foxa-2. Briefly: Immunoblot of phospho-TI56 Foxa-2 in livers after intraportal insulin. In kind it is in vivo, mice. Here is the method: FIG. 15a is an immunoblot of Foxa-2 and Foxo-1 in liver nuclear extracts of fed (n=3) and starved (n=3) mice. Anti-TATA binding protein (Tbp) antibodies were used as a loading control. FIGS. 15b and 15c are immunoblots of Foxa-2 and Foxo-1 in nuclear extracts of livers from mice perfused with different concentrations of insulin. FIG. 15d is a Western blot of Foxa-2 immunoprecipitated with anti-Foxa-2 antibodies from whole cell extracts of livers obtained from fasted mice 30 minutes after injection of 10 ng insulin or PBS in the portal vein. Samples (n=3 for each group) were analyzed by immunoblot analysis with an antibody directed against phospho-TI56 Foxa-2 (top panel) or with an antibody directed against total Foxa-2 protein (bottom panel). […]
The role of Foxa-2 in the regulation of liver gene expression by nutritional status was examined by determining the intracellular localization of Foxa-2 in fasted and fed mice by Western blotting of Foxa-2 in liver nuclear extracts and by immunohistochemistry. […] Strong Foxa-2 immunostaining was detected in hepatocyte nuclei of control (PBS) mice. […] Foxa-2 protein levels were measured in liver nuclei of C57/B6 mice that were perfused with a buffer containing a range of insulin concentrations that included fasting and postprandial insulin levels (0.2 and 4.0 ng/ml, respectively). […] Foxa-2 levels were determined by immunoblotting. […]
In general terms: Immunoblotting shows a protein as a band on a membrane.

Description for Foxa-2 activity: Transfections and Transactivation assay. HepG2 cells were grown to 60-70% confluence in a 24-well dish and transfected with 50 ng of each reporter gene (p6xCdx-TkLuc or pPEPCK-Luc), pCMV-β-Gal as internal reference and the expression vectors for wildtype or mutant Foxa-1 and Foxa-2 and human Akt1/Akt2 using the transfection reagent Fugene6 (Roche). Cells were grown for 48 hours and luciferase activity was measured using the Luciferase Detection System (Promega). Luciferase was normalized for transfection efficiency by β-galactosidase activity.
To analyze whether Foxa-2 activity is regulated by insulin, HepG2 cells were transfected with a Foxa-2 expression vector and either plasmid pPepck-Luc or p6xCdx-TkLuc that contain a 621 bp promoter framnent of the human PEPCK gene or six Foxa-2 binding sites of the Cdx-2 gene upstream of a minimal promoter and the luciferase gene, respectively.

Consider “insulin: Insulin was from Sigma; hormone used as stimulus”, for which the Foxa-2 expression entry in the test with Foxa-2 expression is listed as “strong increase”. For the same substance, the “expression of Pref-1, Hk-2, m2Pk, Glut-4 and Ucp-2/3” value in test [1] is given as “upregulation”. In addition, in the test on Fxr, the Fxr expression entry is “induced”. For the same substance, the “Expression of Shp” value in the test on Shp was “induced”. Besides, in the test on Foxa-2 activity, the “Foxa-2 activity (luciferase reporter)” value is “significantly decreased”. For the same substance, the “mRNA levels of Pepck, G6pc and Igfbp-1” value in the test on Pepck, G6pc and Igfbp-1 was “significantly reduced”. In addition, the “expression levels of Foxa-1, 2 and 3” value in the test with Foxa-1, 2 and 3 is “did not significantly change”. In addition, the “phosphorylated Foxa-2 detected by anti-phospho TI56 peptide antibody” value in the test on Foxa-2 (intraportal injection of insulin vs PBS) is reported as “recognized phosphorylated Foxa-2”. Further, the “Foxa-2 protein levels (anti-Foxa-2 antibodies)” value in the test with Foxa-2 (treated vs untreated livers) was “the same”.

The values are drawn from US20070166710A1, “Methods for inhibiting adipogenesis and for treating type 2 diabetes” (priority 2003, published 2007).
